One test concerns the target T1, Neutrophil elastase (Homo sapiens, UniProt P08246).
T1 sequence (P08246 whole entry): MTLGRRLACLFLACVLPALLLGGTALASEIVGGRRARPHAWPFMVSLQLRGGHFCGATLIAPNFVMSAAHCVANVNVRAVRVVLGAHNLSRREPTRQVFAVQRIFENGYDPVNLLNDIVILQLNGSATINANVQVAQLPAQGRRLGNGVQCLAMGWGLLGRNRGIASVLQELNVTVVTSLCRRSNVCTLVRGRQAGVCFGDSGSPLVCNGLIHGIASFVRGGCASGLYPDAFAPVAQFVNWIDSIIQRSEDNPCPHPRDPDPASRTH
Description: Inhibition of human neutrophil elastase using MeOSuc-Ala-Ala-Pro-Val-pNA as substrate preincubated for 10 mins followed by substrate addition measured after 10 mins by fluorescence assay.

A further test has as its target T2, Cathepsin G (Homo sapiens, UniProt P08311).
T2 sequence (P08311 whole entry): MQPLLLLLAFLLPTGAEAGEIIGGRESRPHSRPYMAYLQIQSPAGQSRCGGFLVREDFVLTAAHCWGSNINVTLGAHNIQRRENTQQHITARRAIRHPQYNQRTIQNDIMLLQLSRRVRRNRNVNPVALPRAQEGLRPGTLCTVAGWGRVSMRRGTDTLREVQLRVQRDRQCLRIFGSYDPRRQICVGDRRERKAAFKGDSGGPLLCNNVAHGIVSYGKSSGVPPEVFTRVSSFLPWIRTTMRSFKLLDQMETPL
The test is described as follows: Inhibition of human neutrophil cathepsin G using Boc-Gln-Ala-Arg-MCA as substrate preincubated for 10 mins followed by substrate addition measured after 10 mins by fluorescence assay.

The nature of test [1]: Inhibition of bovine pancreatic alpha-chymotrypsin using Suc-Ala-Ala-Pro-Phe-MCA as substrate preincubated for 10 mins followed by substrate addition measured after 10 mins by fluorescence assay. On the set-up: species or system Bos taurus.

pIC50: −log10 of the molar value. Where only a bound is given, the exact number is not on record here.

For orientation: pIC50 means the negative decadic logarithm of the IC50, by convention in mol/L. A high value points to a low IC50.

In the case of `CC[C@@H](NC(=O)N1CC(=O)NCC(Cc2cc(Cl)ccc2OC)C1=O)C(=O)Nc1cccc(C(=O)O)c1` (some centres undefined), the pIC50 was below 5.00 at Neutrophil elastase, 5.07 against Cathepsin G and below 5.00 in test [1].

Regarding `CC[C@@H](NC(=O)N1CC(=O)NCC(Cc2cc(Cl)ccc2OC)C1=O)C(=O)Nc1cccc(N)c1` (some centres undefined), the pIC50 (against Neutrophil elastase; on Cathepsin G; in test [1]) was below 5.00 in each case.

As for `CC[C@@H](NC(=O)N1CC(=O)NCC(Cc2cc(Cl)ccc2OC)C1=O)C(=O)Nc1nnn[nH]1` (some centres undefined), the pIC50 (against Neutrophil elastase; against Cathepsin G; in test [1]) was below 5.00 throughout.

Consider `CC[C@@H](NC(=O)N1CC(=O)NC[C@@H](Cc2cc(Cl)ccc2OC)C1=O)c1cc(C(=O)O)co1`, for which the results for the pIC50 (against Neutrophil elastase; at Cathepsin G; in test [1]) were below 4.00, 5.11 and below 4.06, respectively.

On to `CC[C@@H](NC(=O)N1CC(=O)NC[C@@H](Cc2cc(Cl)ccc2OC)C1=O)c1ccc(C(=O)O)c(N)c1`, for which the figures for the negative logarithm of the IC50 (pIC50) (on Neutrophil elastase; in test [1]) were 4.00 and below 4.00, respectively.

The values are drawn from ChEMBL document CHEMBL2396642, “Discovery of novel series of 6-benzyl substituted 4-aminocarbonyl-1,4-diazepane-2,5-diones as human chymase inhibitors using structure-based drug design” (Bioorg Med Chem, 2013).
